Patent publication US20080319181A1, “Method of Making an Artificial Nuclease for Anti-viral, Anti-bacterial Applications” (The Government of the United States of America, as …, priority 2004, published 2008)

Experiments:
Type in all cases: biochemical
pBluescript plasmid DNA = experiment: Hydrolysis (nicking) of plasmid DNA, agarose gel; conditions: pH 7; 5 mM cobalt complex; 0.1M MOPS; 37° C., approximately 16 hours; NIH Image
Method: DNA was digested with cocycmba and cocycmmb at three pH conditions (FIG. 3). Hydrolysis of the phosophodiester bonds of the double stranded (ds) plasmid DNA should lead to a conversion from the covalently closed supercoiled form to the nicked form of the plasmid. […] Plasmid DNA digested with a nicking enzyme (lane 1 FIG. 3) confirms that the slower moving band observed in digests with the cobalt catalysts is the nicked form of the plasmid.
Digests run overnight at 37° C. for approximately 16 hours on a 1.5% agarose gel. Controls with no cobalt catalyst were always run in parallel. b) 5 mM cocycmmb and 1.19 μg (0.168 mM bp) pBluescript plasmid DNA in 0.1M MOPS buffer at pH 7, 8, and 10 run under identical conditions. 1=Nickase+DNA, 2=DNA. 3=Cobalt complex+DNA at pH 7.4=pH 7 control, 5=Cobalt complex+DNA at pH 8, 6=pH 8 control, 7=Cobalt complex+DNA at pH 10, 8=pH 10 control Nickase reactions were performed at pH 7 using a 4 hour, 37° C. incubation of 1.18 μg pBluescript plasmid DNA.

luciferase mRNA = experiment: Hydrolysis of RNA, denaturing agarose gel electrophoresis; conditions: 1 to 5 mM; 24 h at 25° C. in HBS (FIG. 5)
Method: The direct interaction of Co(III)-cycmmb with luciferase mRNA was analyzed by denaturing agarose gel electrophoresis. mRNA template (2 μg at a final concentration of 0.4 mg/mL) was incubated with varying concentrations (1 to 5 mM) of activated Co(III)-cycmmb for 24 h at 25° C. in 5 μL of HBS. Following the incubation, the reactions were analyzed by electrophoresis on a 2% denaturing agarose gel run for 4 h at 40 V. The gel was stained with RiboGreen (Molecular Probes), visualized by UV illumination, and images were quantified using Scion Image using the control incubation (no Co(III)-cycmmb) as a standard (see FIG. 5).

[1] = Hydrolysis of BNPP by cobalt cyclen complexes (2nd order rate constants); conditions: 50° C., activation using sodium hydroxide
Method: The hydrolysis of BNPP by both Cocyc and 2 at 50° C., following activation using sodium hydroxide, has been measured (see Table 1). The second-order rate constants at pH 8.2 for both cyclen and 2 were similar at 14 and 12 M^−1 min^−1, respectively. The rate increased at pH 7.3 to a value of 19 M^−1 min^−1 for cyclen as compared to the published value of 2.8 M^−1 min^−1 at pH 7 (Chin, J.; Banaszczyk, M.; Jubian, V.; Zou, X. J. Am. Chem. Soc. 1989, 111, 186-190, the entire contents of which is incorporated herein by reference). The difference between the published value and ours can be attributed to different experimental conditions, such as buffer. pH, and the ratio of catalyst to substrate.
The much lower hydrolysis rate shown at pH 7.3 for Cocycmba is surprising. In order to determine whether the differences observed were mainly due to the carboxylic acid or to the presence of the benzene ring, the kinetics of 3 were measured at pH 7.3 and found to be 14 M^−1 min^−1, which is much closer to the Cocyc rate. Methylation of the benzoic acid takes away both the negative charge and an ability to effectively hydrogen bond. Therefore the results imply that the behavior of 2 can be mostly ascribed to the presence of the additional charge and the potential for hydrogen bonding. For example, the acid dissociation constants of cyclen of 5.6 and 8.0 mean that between pH 8.2 and 7.3 complexes 1 and 2 should convert from predominantly the dihydroxo to the aquo-hydroxo form (see FIG. 2). Since the benzoic acid is in the benzoate form (pKa 4.2), the increasing net positive charge at pH 7.3 of the coordination site may allow the benzoate to approach closer to Co(III) and interfere with the hydrolysis of BNPP.

Luciferase control-RNA = experiment: Western blot analysis of effect on protein translation (Rabbit Reticulocyte Lysate)
Method: Luciferase control-RNA (at a final concentration of 0.4 ug/mL) was incubated with increasing concentrations of Cocycmmb for 24 h in 1× HBS buffer (pH 7.4) for 24 h. After the incubation period, the RNA template was translated into luciferase protein using the Rabbit Reticulocyte Lysate translation system (Promega) according to the manufacturer's instructions. After translation, the reaction was analyzed by reducing SDS-PAGE and western blotting to monitor the presence of the 60 kDa luciferase protein product. An aliquot (3 uL) of the translation reaction was run on a 10% NuPAGE Bis-Tris polyacrylamide gel under reducing conditions and transferred to a solid support membrane (PVDF). The membrane was blocked for 1 h in TBS-T (TBS containing 0.05% Tween) and subsequently incubated for 1 h with a 1:2500 dilution of a streptavidin-alkaline phosphatase conjugate. Detection was achieved by exposing the membrane to Western Blue substrate for alkaline phosphatase.
RNA incubations were done as described above except that the Cocycmmb concentration was held constant at 5 mM (and, more recently, down to 0.05 mM) and incubated for varying amounts of time that spanned 24 h. SDS-PAGE and Western blotting were done as described above.

| Compound | nicked product (pBluescript plasmid DNA) [%] | hydrolysis of RNA (luciferase mRNA) | 2nd Order Rate Constants, hydrolysis of BNPP ([1]; pH 7.3) [M⁻¹ s⁻¹] | 2nd Order Rate Constants, hydrolysis of BNPP ([1]; pH 8.2) [M⁻¹ s⁻¹] | inhibition of protein production (Luciferase control-RNA; 0.25 mM, 10 minutes incubation time) | luciferase protein band in the Western blot (Luciferase control-RNA; as a function of Cocycmmb concentration and of time of contact with the RNA (FIG. 4)) |
| --- | --- | --- | --- | --- | --- | --- |
| COC(=O)c1ccc(CN2CCNCCNCCNCC2)cc1.COS(=O)(=O)[O-].[Cl-].[Cl-].[Co+3] [Cocycmmb, Dichloro{methyl 4-[(1,4,7,10-tetraazacyclododec-1-yl)methyl]-benzoate}cobalt (III) methylsulfate] | 43 | hydrolyze RNA | 0.233 | 0.183 | significant inhibition of protein production | absence of the protein band |
| dichloro(4-[1,4,7,10-tetraazacyclotetradec-1-yl]methylbennzoic acid)cobalt(III) chloride [Cocycmba] | 25 |  | 0.045 | 0.2 |  |  |
